Patent publication US20090247624A1, “FORMULATIONS OF RADIOPROTECTIVE ALPHA BETA UNSATURATED ARYL SULFONES” (Onconova Therapeutics Inc., priority 2006, published 2009)

Experiments:
[1] = test system: HFL-1 cells; test: Radioprotective effects on cultured normal cells (colony count); format: cell-based, human; details: 2.5 to 20 micromolar for 24 hrs before 10 Gy or 15 Gy; colonies on test plates / control plates
Procedure: HFL-1 cells, which are normal diploid lung fibroblasts, were plated into 24 well dishes at a cell density of 3000 cells per 10 mm^2 in DMEM completed with 10% fetal bovine serum and antibiotics. The test compounds listed in Table 11 were added to the cells 24 hours later in select concentrations from 2.5 to 20 micromolar, inclusive, using DMSO as a solvent. Control cells were treated with DMSO alone. The cells were exposed to the test compound or DMSO for 24 hrs. The cells were then irradiated with either 10 Gy (gray) or 15 Gy of ionizing radiation (IR) using a J. L. Shepherd Mark I, Model 30-1 Irradiator equipped with ^137cesium as a source.
After irradiation, the medium on the test and control cells was removed and replaced with fresh growth medium without the test compounds or DMSO. The irradiated cells were incubated for 96 hours and duplicate wells were trypsinized and replated onto 100 mm^2 tissue culture dishes. The replated cells were grown under normal conditions with one change of fresh medium for 3 weeks. The number of colonies from each 100 mm^2 culture dish, which represents the number of surviving cells, was determined by staining the dishes as described below.
To visualize and count the colonies derived from the clonal outgrowth of individual radioprotected cells, the medium was removed and the plates were washed one time with room temperature phosphate buffered saline. The cells were stained with a 1:10 diluted Modified Giemsa staining solution (Sigma) for 20 minutes. The stain was removed, and the plates were washed with tap water. The plates were air dried, the number of colonies from each plate were counted and the average from duplicate plates was determined.
A “+” indicates radioprotective activity of between 2- and 4.5-fold at the concentrations tested. Fold protection was determined by dividing the average number of colonies from the test plates by the average number of colonies on the control plates.

[2] = test system: C57 black mice; test: Protection of mice from radiation toxicity by pre-treatment; format: in vivo
Procedure: C57 black mice age 10-12 weeks (Taconic) were divided into two treatment groups of 10 mice each. One group, designated the “200×2” group, received intraperitoneal injections of 200 micrograms (E)-4-carboxystyryl-4-chlorobenzylsulfone dissolved in DMSO (a 10 mg/Kg dose, based on 20 g mice) 18 and 6 hours before irradiation with 8 Gy gamma radiation. The other group, designated “500×2,” received intraperitoneal injections of 500 micrograms (E)-4-carboxystyryl-4-chlorobenzylsulfone dissolved in DMSO (a 25 mg/Kg dose, based on 20 g mice) 18 and 6 hours before irradiation with 8 Gy gamma radiation. A control group of 16 animals received 8 Gy gamma radiation alone.

[3] = room temperature; cited from earlier work
[4] = test system: rodent species; details: after IP and IV administration to different rodent species; cited from earlier work
[5] = test system: human; details: approximately 500 mg/kg iv continuously as 5 percent aqueous solution, one individual, four days; cited from earlier work
[6] = “200×2” group: 10 mg/Kg i.p. 18 and 6 hours before 8 Gy gamma radiation
[7] = “500×2” group: 25 mg/Kg i.p. 18 and 6 hours before 8 Gy gamma radiation

Compound | Activity (radioprotection, fold protection) [1] | other results
O=S(=O)(/C=C/c1ccoc1)Cc1ccc(Cl)cc1Cl [Compound 8, (E)-3-Furanethenyl-2,4-dichlorobenzylsulfone] | + (A “+” indicates radioprotective activity of between 2- and 4.5-fold at the concentrations tested) | –
O=S(=O)(/C=C\c1ccc(F)cc1)Cc1ccc(Cl)cc1 [Compound 7, (Z)-4-Fluorostyryl-4-chlorobenzylsulfone] | + (A “+” indicates radioprotective activity of between 2- and 4.5-fold at the concentrations tested) | –
O=C(O)c1ccc(/C=C/S(=O)(=O)Cc2ccc(Cl)cc2)cc1 [Compound 13, (E)-4-Carboxystyryl-4-chlorobenzylsulfone] | + (A “+” indicates radioprotective activity of between 2- and 4.5-fold at the concentrations tested) | maximum mortality rate by day 40 [2, 6]: approximately 60%; mice dead at day 20 [2, 6]: about 50%; maximum mortality rate by day 40 [2, 7]: about 50%; mice dead at day 20 [2, 7]: about 30%
(E)-4-Fluorostyryl-4-trifluoromethylbenzylsulfone [Compound 5] | + (A “+” indicates radioprotective activity of between 2- and 4.5-fold at the concentrations tested) | –
O=S(=O)(/C=C/c1ccc(F)cc1)Cc1ccc(Cl)cc1 [Compound 1, (E)-4-Fluorostyryl-4-chlorobenzylsulfone] | + (A “+” indicates radioprotective activity of between 2- and 4.5-fold at the concentrations tested) | –
(E)-2,4,6-Trimethoxystyryl-4-methoxybenzylsulfone [Compound 2] | + (A “+” indicates radioprotective activity of between 2- and 4.5-fold at the concentrations tested) | –
(E)-4-Fluorostyryl-4-chlorophenylsulfone [Compound 10] | + (A “+” indicates radioprotective activity of between 2- and 4.5-fold at the concentrations tested) | –
(Z)-Styryl-(E)-2-methoxy-4-ethoxystyrylsulfone [Compound 11] | + (A “+” indicates radioprotective activity of between 2- and 4.5-fold at the concentrations tested) | –
(E)-4-Fluorostyryl-4-cyanobenzylsulfone [Compound 6] | + (A “+” indicates radioprotective activity of between 2- and 4.5-fold at the concentrations tested) | –
Hydroxypropyl-B-Cyclodextrin [HPCD] | – | solubility in water [3]: greater than 500 mg/ml; toxicity [4]: non-toxic; adverse clinical effects [5]: no adverse clinical effects were reported
